From paper PMC3433162 (Analytical chemistry, 2012)

Key:
[1] = target: bovine carbonic anhydrase (BCA) (Bos taurus, UniProt P00921); test: biochemical; format: binding
carbonic anhydrase = details: read-out: Kd or Ki; cited from earlier work

bovine carbonic anhydrase (BCA), sequence (P00921 whole entry): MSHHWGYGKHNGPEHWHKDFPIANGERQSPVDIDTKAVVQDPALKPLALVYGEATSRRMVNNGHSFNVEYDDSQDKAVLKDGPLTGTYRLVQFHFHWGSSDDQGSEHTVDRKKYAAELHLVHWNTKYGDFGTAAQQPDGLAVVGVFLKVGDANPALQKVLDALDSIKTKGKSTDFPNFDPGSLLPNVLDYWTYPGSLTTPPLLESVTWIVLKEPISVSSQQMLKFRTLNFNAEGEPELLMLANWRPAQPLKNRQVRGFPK

| Compound | Kd [1] | Kd (carbonic anhydrase) |
| --- | --- | --- |
| Cc1ccc(S(N)(=O)=O)cc1 [4-methylbenzene sulfonamide] | 0.29 µM | – |
| methane sulfonamide | – | 70 to 320 µM |
